Read-outs that look alike come from different tables or passages of the source.
How the values were obtained:
Type in all cases: cell-based
PPARα = target: T1, PPARα (Homo sapiens, UniProt Q07869); test: Gal4-PPARα(LBD) reporter gene agonistic activity assay in Cos-7 cells; conditions: for EC50: Cos-7 cells, Gal4-PPARα(LBD) reporter, 16 h, 100% = GW7647 10 nM; for agonistic activity for PPARα (EC50 level, in words): Cos-7 reporter assay
T1 construct: hPPARα (279aa-580aa); expressed in transfected cells; host or cells: Cos-7
T1 sequence (Q07869 167-468 limits assumed): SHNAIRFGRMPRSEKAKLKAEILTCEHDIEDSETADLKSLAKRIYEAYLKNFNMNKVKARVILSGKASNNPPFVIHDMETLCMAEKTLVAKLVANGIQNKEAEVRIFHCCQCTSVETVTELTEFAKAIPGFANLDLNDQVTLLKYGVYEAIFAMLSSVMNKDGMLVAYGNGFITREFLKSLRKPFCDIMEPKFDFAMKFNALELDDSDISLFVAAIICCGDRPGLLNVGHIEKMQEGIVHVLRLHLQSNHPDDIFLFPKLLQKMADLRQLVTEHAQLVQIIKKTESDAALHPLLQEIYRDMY
Protocol: (§1) Cos-7 cells (African green monkey kidney fibroblasts, commonly used tool cells) were cultured in a 10 cm cell culture dish in a DMEM complete medium containing 10% fetal bovine serum. When the cells grew to a density of about 70%, the medium was replaced with a fresh medium for later transfection. […] The plasmid working solution was then added to the cell culture dish for cell transfection. […] Test compounds were prepared into appropriate test concentrations with a complete medium and then added to the 96-well plate. […] 10 μL of lysate was pipetted into a white opaque 384-well plate, and then 10 μL of reporter gene assay buffer (purchased from Shanghai Beyotime Biological Tech. Co., Ltd.) was added. The bioluminescence was detected by using a multimode microplate reader, and the corresponding half maximal effective concentration (EC50) value was calculated according to the detection value.

PPARδ = target: T2, PPARδ (Homo sapiens, UniProt Q03181); test: Gal4-PPARδ(LBD) reporter gene agonistic activity assay in Cos-7 cells; conditions: for agonistic activity for PPARδ (EC50 level, in words): Cos-7 reporter assay
T2 construct: expressed in transfected cells; host or cells: Cos-7
T2 sequence (Q03181 139-441 limits assumed): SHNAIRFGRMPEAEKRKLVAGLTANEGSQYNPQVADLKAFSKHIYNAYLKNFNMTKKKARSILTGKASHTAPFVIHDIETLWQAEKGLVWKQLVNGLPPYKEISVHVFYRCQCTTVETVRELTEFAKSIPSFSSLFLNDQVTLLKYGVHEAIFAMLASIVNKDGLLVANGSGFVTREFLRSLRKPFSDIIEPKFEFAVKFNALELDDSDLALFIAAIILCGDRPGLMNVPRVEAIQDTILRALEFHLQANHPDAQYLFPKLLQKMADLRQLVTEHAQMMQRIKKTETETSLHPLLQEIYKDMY
Protocol: as §1

PPARγ = target: T3, PPARγ (Homo sapiens, UniProt P37231); test: Gal4-PPARγ(LBD) reporter gene agonistic activity assay in Cos-7 cells
T3 construct: hPPARγ (281aa-554aa); expressed in transfected cells; host or cells: Cos-7
T3 sequence (P37231 232-505 limits assumed): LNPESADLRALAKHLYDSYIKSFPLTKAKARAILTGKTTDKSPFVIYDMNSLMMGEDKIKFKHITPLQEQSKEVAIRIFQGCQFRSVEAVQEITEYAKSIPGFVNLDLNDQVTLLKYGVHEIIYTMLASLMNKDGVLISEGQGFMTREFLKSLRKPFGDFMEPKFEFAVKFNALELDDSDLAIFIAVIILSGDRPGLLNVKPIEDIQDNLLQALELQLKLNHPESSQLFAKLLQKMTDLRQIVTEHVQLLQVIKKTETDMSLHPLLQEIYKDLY
Protocol: as §1

[1] = Cos-7 cells, Gal4-PPARδ(LBD) reporter, 16 h, 100% = GW501516 10 nM
[2] = Cos-7 cells, Gal4-PPARγ(LBD) reporter, 16 h, 100% = Rosiglitazone 1 μM

Compound	EC50 (PPARα) [nM]	EC50 (PPARδ; [1]) [nM]	further results
Cc1cc(CCCn2ncn(-c3ccc(C(F)(F)F)cc3)c2=O)cc(C)c1OC(C)(C)C(=O)O [Compound 200, 2-(2,6-Dimethyl-4-(3-(5-oxo-4-(4-(trifluoromethyl)phenyl)-4,5-dihydro-1H-1,2,4-triazol-1-yl)propyl)phenoxy)-2-methylpropionic acid]	134	212	
CCOc1ccc(-n2cnn(Cc3cc(C)c(OC(C)(C)C(=O)O)c(C)c3)c2=O)cc1 [Compound 69, 2-(4-((4-(4-Ethoxyphenyl)-5-oxo-4,5-dihydro-1H-1,2,4-triazol-1-yl)methyl)-2,6-dimethylphenoxy)-2-methylpropionic acid]	33	481	
Cc1cc(Cn2ncn(-c3ccccc3)c2=O)cc(C)c1OC(C)(C)C(=O)O [Compound 63, 2-(2,6-Dimethyl-4-((5-oxo-4-phenyl-4,5-dihydro-1H-1,2,4-triazol-1-yl)methyl)phenoxy)-2-methylpropionic acid]	1030		EC50 (PPARγ): 8650 nM
Cc1cc(Cn2ncn(-c3ccc(F)cc3)c2=O)cc(C)c1OC(C)(C)C(=O)O [Compound 109, 2-(4-((4-(4-Fluorophenyl)-5-oxo-4,5-dihydro-1H-1,2,4-triazol-1-yl)methyl)-2,6-dimethylphenoxy)-2-methylpropionic acid]	645	389	
CC(C)(Oc1c(F)cc(Cn2ncn(-c3ccc(C(F)(F)F)cc3)c2=O)cc1F)C(=O)O [Compound 127, 2-(2,6-Difluoro-4-((5-oxo-4-(4-(trifluoromethyl)phenyl)-4,5-dihydro-1H-1,2,4-triazol-1-yl)methyl)phenoxy)-2-methylpropionic acid]		586	
CC(C)(Oc1ccc(Cn2ncn(-c3ccc(C(F)(F)F)cc3)c2=O)cc1F)C(=O)O [Compound 123, 2-(2-Fluoro-4-((5-oxo-4-(4-(trifluoromethyl)phenyl)-4,5-dihydro-1H-1,2,4-triazol-1-yl)methyl)phenoxy)-2-methylpropionic acid]	394	664	
Cc1cc(Cn2ncn(-c3ccc(C(F)(F)F)cc3)c2=O)ccc1OC(C)(C)C(=O)O [Compound 77, 2-Methyl-2-(2-methyl-4-((5-oxo-4-(4-(trifluoromethyl)phenyl)-4,5-dihydro-1H-1,2,4-triazol-1-yl)methyl)phenoxy)propionic acid]	103	132	
Cc1cc(Cn2ncn(-c3cccc(C(F)(F)F)c3)c2=O)cc(C)c1OC(C)(C)C(=O)O [Compound 121, 2-(2,6-Dimethyl-4-((5-oxo-4-(3-(trifluoromethyl)phenyl)-4,5-dihydro-1H-1,2,4-triazol-1-yl)methyl)phenoxy)-2-methylpropionic acid]		39	
[2H]C([2H])(c1cc(C)c(OC(C)(C)C(=O)O)c(C)c1)n1ncn(-c2ccc(C(F)(F)F)cc2)c1=O [Compound 187, 2-(2,6-Dimethyl-4-((5-oxo-4-(4-(trifluoromethyl)phenyl)-4,5-dihydro-1H-1,2,4-triazol-1-yl)methyl-d2)phenoxy)-2-methylpropionic acid]	10		agonistic activity for PPARα (EC50 level, in words) (PPARα): at nanomolar levels; EC50 (PPARδ): 7 nM; agonistic activity for PPARδ (EC50 level, in words) (PPARδ): at nanomolar levels
CC(C)(Oc1c(Cl)cc(Cn2ncn(-c3ccc(OC(F)(F)F)cc3)c2=O)cc1Cl)C(=O)O [Compound 149, 2-(2,6-Dichloro-4-((5-oxo-4-(4-(trifluoromethoxy)phenyl)-4,5-dihydro-1H-1,2,4-triazo 1-1-yl)methyl)phenoxy)-2-methylpropionic acid]	7	225	
CCc1cc(Cn2ncn(-c3ccc(C(F)(F)F)cc3)c2=O)cc(CC)c1OC(C)(C)C(=O)O [Compound 191, 2-(2,6-Diethyl-4-((5-oxo-4-(4-(trifluoromethyl)phenyl)-4,5-dihydro-1H-1,2,4-triazol-1-yl)methyl)phenoxy)-2-methylpropionic acid]	44	42	agonistic activity for PPARα (EC50 level, in words) (PPARα): at nanomolar levels; agonistic activity for PPARδ (EC50 level, in words) (PPARδ): at nanomolar levels
CC(C)(Oc1ccc(Cn2ncn(-c3ccc(C(F)(F)F)cc3)c2=O)cc1)C(=O)O [Compound 137, 2-(4-((4-(4-Trifluoromethylphenyl)-5-oxo-4,5-dihydro-1H-1,2,4-triazol-1-yl)methyl)phenoxy)-2-methylpropionic acid]		1520	
Cc1cc(Cn2ncn(-c3ccc(-c4ccccc4)cc3)c2=O)cc(C)c1OC(C)(C)C(=O)O [Compound 117, 2-(4-((4-([1,1′-Biphenyl]-4-yl)-5-oxo-4,5-dihydro-1H-1,2,4-triazol-1-yl)methyl)-2,6-dimethylphenoxy)-2-methylpropionic acid]		135	
CC(C)(Oc1ccc(Cn2ncn(-c3ccc(OC(F)(F)F)cc3)c2=O)cc1)C(=O)O [Compound 153, 2-Methyl-2-(4-((5-oxo-4-(4-(trifluoromethoxy)phenyl)-4,5-dihydro-1H-1,2,4-triazol-1-yl)methyl)phenoxy)propionic acid]	498	1680	
CC(C)(Oc1c(F)cc(Cn2ncn(-c3ccc(OC(F)(F)F)cc3)c2=O)cc1F)C(=O)O [Compound 155, 2-(2,6-Difluoro-4-((5-oxo-4-(4-(trifluoromethoxy)phenyl)-4,5-dihydro-1H-1,2,4-triazol-1-yl)methyl)phenoxy)-2-methylpropionic acid]	351	1370	
Cc1cc(Cn2ncn(-c3ccc(OC(F)(F)F)cc3)c2=O)cc(Cl)c1OC(C)(C)C(=O)O [Compound 145, 2-(2-Chloro-6-methyl-4-((5-oxo-4-(4-(trifluoromethoxy)phenyl)-4,5-dihydro-1H-1,2,4-triazol-1-yl)methyl)phenoxy)-2-methylpropionic acid]	8		agonistic activity for PPARα (EC50 level, in words) (PPARα): at nanomolar levels; EC50 (PPARδ): 29 nM; agonistic activity for PPARδ (EC50 level, in words) (PPARδ): at nanomolar levels
CC(C)(Oc1ccc(Cn2ncn(-c3ccc(OC(F)(F)F)cc3)c2=O)cc1F)C(=O)O [Compound 151, 2-(2-Fluoro-4-((5-oxo-4-(4-(trifluoromethoxy)phenyl)-4,5-dihydro-1H-1,2,4-triazol-1-yl)methyl)phenoxy)-2-methylpropionic acid]	220	914	
CC(C)(Oc1ccc(Cn2ncn(-c3ccc(C(F)(F)F)cc3)c2=O)cc1C(F)(F)F)C(=O)O [Compound 147]		81	EC50 (PPARγ; [2]): 1800 nM
Cc1cc(OCn2ncn(-c3ccc(C(F)(F)F)cc3)c2=O)cc(C)c1OC(C)(C)C(=O)O [Compound 196, 2-(2,6-Dimethyl-4-((5-oxo-4-(4-(trifluoromethyl)phenyl)-4,5-dihydro-1H-1,2,4-triazol-1-yl)methoxy)phenoxy)-2-methylpropionic acid]	86	56	
Cc1cc(CCn2ncn(-c3ccc(C(F)(F)F)cc3)c2=O)cc(C)c1OC(C)(C)C(=O)O [Compound 194, 2-(2,6-Dimethyl-4-(2-(5-oxo-4-(4-(trifluoromethyl)phenyl)-4,5-dihydro-1H-1,2,4-triazol-1-yl)ethyl)phenoxy)-2-methylpropionic acid]		38	agonistic activity for PPARδ (EC50 level, in words) (PPARδ): at nanomolar levels; EC50 (PPARγ; [2]): 2020 nM
